{"source": "patent US20220016200A1", "about": "“PHARMACEUTICAL COMPOSITION FOR THE TREATMENT OF CYSTIC FIBROSIS” (GALENUS G.H. AG, priority 2018, published 2022)", "key": {"A. haemolyticus 1655843": {"test_system": "A. haemolyticus 1655843", "assay": "Checkerboard colistin sulphate (CS) plus teicoplanin (TP), MIC/FIC and MBC/FBC", "format": "cell-based, Acinetobacter haemolyticus", "conditions": "agent alone, CAMHB, 5*10^5 CFU/ml; for MIC: A. haemolyticus 1655843, 24 h", "method": "(§1) Checkerboard analysis to determine minimal inhibitory concentration (MIC)/fractional inhibitory concentration (FIC) and minimal […] (MBC)/fractional […] (FBC) values of colistin sulphate (CS) plus teicoplanin (TP) for 6 Gram-negative strains with a bacterial load 5(1-10)*10^5 CFU/ml in a cation-adjusted Mueller-Hinton broth (CAMHB). • a. Antimicrobial stock solutions were prepared using sterile distilled water • b. CS was added along the ordinate; TP was added along the abscissa to 96 well, flat bottom, polystyrene panels with no treatment. Colistin alone was tested in triplicates. • c. Serial 2-fold dilutions starting with 640 μg/ml CS and 640 μg/ml TP were made; 15 μl volume of the serial dilutions were added for each agent to the appropriate wells; final volume at 30 μl • d. For each agent tested alone an additional 15 μl media was added to the well. 30 μl were added in control wells where none of the agent was tested. The negative control well contains 150 μl media without any additions • e. From an overnight bacterial culture in tryptic soy broth, 100 μL was added to 10 mL of fresh tryptic soy broth. This was then incubated at 37° C. for 1.5 hour at 180 rpm. • f. Bacteria in 120 μl CAMHB were added to each well (end concentration 5(1-10)*10^5 CFU/ml) • g. Plates were incubated at 37° C. in an ambient air incubator for 24 h • h. Turbidity at OD600 is determined with a plate photometer • i. By using a one-time inoculator 3 μl from each well of the 96-well plate were transferred to three blood agar plates. The plates were incubated over night at 37° C. in an ambient air incubator • j. MIC values are defined as lowest concentration which restricts bacterial growth to OD600 ≤0.1 • k. MBC values were determined by visual reading the lowest concentration which inhibits 99.9% of the growth of bacteria in the wells • l. Determination of the fractional inhibitory concentration (FIC) index and fractional bactericidal concentration (FBC) index and characterization of antimicrobial interactions was assessed […]\nFIC calculation was carried out as: (MIC of drug A, tested in combination)/(MIC of drug A, tested alone)+(MIC of drug B, tested in combination)/(MIC of drug B, tested alone). FBC calculation was carried out just as well […]\n(§2) Interactive categories were calculated from checkerboard analysis using MIC results from testing each agent alone and MIC results from the combination wells adjacent to the wells with growth in them […]\nb. Indifference; FIC/FBC>0.5 to<4.0 c. Antagonism; FIC/FBC≥4.0 c. A. haemolyticus 1655843 (IHMA), colistin resistant"}, "S. maltophilia 1221783": {"test_system": "S. maltophilia 1221783", "assay": "Checkerboard colistin sulphate (CS) plus teicoplanin (TP), MIC/FIC and MBC/FBC", "format": "cell-based, Stenotrophomonas maltophilia", "conditions": "agent alone, CAMHB, 5*10^5 CFU/ml", "method": "as §1, with “MIC values are defined as lowest concentration which restricts bacterial growth to OD600 ≤0.1 • k. MBC values were determined by visual reading the lowest concentration which inhibits 99.9% of the growth of bacteria in the wells • l.” left out\nas §2"}, "S. maltophilia 1237289": {"test_system": "S. maltophilia 1237289", "assay": "Checkerboard fusidic acid (FD) and colistin sulfate (CS), MIC/FIC", "format": "cell-based, Stenotrophomonas maltophilia", "conditions": "for MIC: S. maltophilia 1237289, agent alone, CAMHB, 1*10^6 CFU/ml", "method": "Checkerboard assays between fusidic acid (FD) and colistin sulfate (CS) with a bacterial load 5(1-10)*10^5 CFU/ml in cationic adapted Mueller Hinton broth (CAMHB). • a. Antimicrobial stock solutions were prepared using sterile distilled water; • b. CS was added along the ordinate; FD was added along the abscissa to 96 well, flat bottom, polystyrene panels with no treatment. Colistin alone was tested in triplicates; • c. Serial 2-fold dilutions starting with 640 […] CS and 640 μg/ml FD were made; 15 μl volume of the serial dilutions were added for each agent to the appropriate wells—final volume at 30 μl; • d. For each agent tested alone an additional 15 μl media was added to the well. 30 μl were added in control wells where none of the agent was tested. The negative control well contains 150 μl media without any additions; • e. From an overnight bacterial culture in tryptic soy broth, 100 μL was added to 10 mL of fresh tryptic soy broth. This was then incubated at 37° C. for 1.5 hour at 180 rpm; • f. Bacteria in 120 μl CAMHB were added to each well (end concentration 5(1-10)*10^5 CFU/ml); • g. Plates were incubated at 37° C. in an ambient air incubator for 24 h • h. Turbidity at OD600 is determined with a plate photometer • i. By using a one-time inoculator 3 μl from each well of the 96-well plate were transferred to three blood agar plates. The plates were incubated over night at 37° C. in an ambient air incubator; • j. MIC values are defined as lowest concentration which restricts bacterial growth to OD600≤0.1; • k. MBC values were determined by visual reading the lowest concentration which inhibits 99.9% of the growth of bacteria in the wells; • l. Determination of the fractional inhibitory concentration (FIC) index and fractional bactericidal concentration (FBC) index and characterization of antimicrobial interactions was assessed;\nFIC calculation was carried out as: (MIC of drug A, tested in combination)/(MIC of drug A, tested alone)+(MIC of drug B, tested in combination)/(MIC of drug B, tested alone). FBC calculation was carried out just as well;\nInteractive categories were calculated from checkerboard analysis using MIC results from testing each agent alone and MIC results from the combination wells adjacent to the wells with growth in them.\nDetermination of the fractional inhibitory concentration (FIC) index and fractional bactericidal concentration (FBC) index and characterization of antimicrobial interactions was assessed:\n(ii) Indifference; FIC/FBC>0.5 to <4.0\n(iii) Antagonism; FIC/FBC≥4.0\ne. Stenotrophomonas maltophilia 1237289 (IHMA), colistin resistant (CS 2/4-4/8-8/8)"}}, "note": "Where two headings read alike, the source gives them in different places. Bridge positions count the residues as written; N and C are the ends. Square brackets hold non-standard residues; d marks the D form. Peptide text beside a SMILES is read from it. * marks the point of attachment. Heptanoyl(5-Me) = CCC(C)CCCC(=O)*; Dab = NCC[C@H](N)C(=O)O"}
{"smiles": "CCC(C)CCCC(=O)N[C@@H](CCN)C(=O)N[C@H](C(=O)N[C@@H](CCN)C(=O)N[C@H]1CCNC(=O)[C@H]([C@@H](C)O)NC(=O)[C@H](CCN)NC(=O)[C@H](CCN)NC(=O)[C@H](CC(C)C)NC(=O)[C@@H](CC(C)C)NC(=O)[C@H](CCN)NC1=O)[C@@H](C)O", "note": "(stereo partly drawn) [CS, colistin sulphate] ({Heptanoyl(5-Me)}-[Dab]T[Dab][Dab][Dab][dL]L[Dab][Dab]T; lactam 4-C)", "values": [{"measurement": "MIC", "setting": "A. haemolyticus 1655843", "value": ">16", "unit": "µg/mL"}, {"measurement": "MIC", "setting": "A. haemolyticus 1655843; listed as colistin", "value": "≥ 4", "unit": "µg/mL"}, {"measurement": "MBC", "setting": "A. haemolyticus 1655843; Acinetobacter haemolyticus, 1655843, A. haemolyticus, read-out: MBC", "value": "> 16", "unit": "µg/mL"}, {"measurement": "MIC", "setting": "S. maltophilia 1221783; Stenotrophomonas maltophilia, 1221783, 24 h, read-out: MIC", "value": "≤ 0.5", "unit": "µg/mL"}, {"measurement": "MIC", "setting": "S. maltophilia 1221783; 24 h", "value": 0.25, "unit": "µg/mL"}, {"measurement": "MIC", "setting": "S. maltophilia 1237289; 24 h", "value": 1, "unit": "mg/1l"}, {"measurement": "MIC", "setting": "S. maltophilia 1237289; after 48 h growth (values in brackets)", "value": "(4) mg/1l"}, {"measurement": "MBC", "setting": "S. maltophilia 1237289; Stenotrophomonas maltophilia, 1237289, organism list of Example 3, Stenotrophomonas maltophilia 1237289, repeated determinations", "value": 4, "unit": "µg/mL"}]}
